Experimental data as given in patent US10669284B2, “Fused thiazolopyrimidine derivatives as MNKS inhibitors” (LIFEARC, priority 2015, dated 2020).

What was measured:
AKT1 = AKT1 (Homo sapiens, UniProt P31749); test: Kinase selectivity screen AKT1; settings: read-out: % inhibition of AKT1
PTK2 = PTK2 (Homo sapiens, UniProt Q05397); test: Kinase selectivity screen PTK2; settings: read-out: % inhibition of PTK2
STK10 = STK10 (Homo sapiens, UniProt O94804); test: Kinase selectivity screen STK10; settings: read-out: % inhibition of STK10
SGK1 = target: T1, SGK1 (Homo sapiens, UniProt O00141); test: Kinase selectivity screen SGK1; settings: read-out: % inhibition of SGK1
T1 sequence (O00141 1-431): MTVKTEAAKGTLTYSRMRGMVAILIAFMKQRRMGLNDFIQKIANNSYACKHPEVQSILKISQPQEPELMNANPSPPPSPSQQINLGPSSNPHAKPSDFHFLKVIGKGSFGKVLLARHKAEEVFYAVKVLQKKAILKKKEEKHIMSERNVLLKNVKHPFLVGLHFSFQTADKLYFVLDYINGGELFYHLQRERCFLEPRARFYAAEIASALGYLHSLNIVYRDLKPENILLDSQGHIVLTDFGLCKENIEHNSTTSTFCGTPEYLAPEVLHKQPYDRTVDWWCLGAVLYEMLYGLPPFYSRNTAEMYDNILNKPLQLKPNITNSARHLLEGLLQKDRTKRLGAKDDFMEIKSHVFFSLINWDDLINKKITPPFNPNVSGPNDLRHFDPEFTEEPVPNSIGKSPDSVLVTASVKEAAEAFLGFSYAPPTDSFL

RPS6KA5 = RPS6KA5 (Homo sapiens, UniProt O75582); test: Kinase selectivity screen RPS6KA5; settings: read-out: % inhibition of RPS6KA5
KIT = KIT (Homo sapiens, UniProt P10721); test: Kinase selectivity screen KIT; settings: read-out: % inhibition of KIT
MKNK2 = MKNK2 (Homo sapiens, UniProt Q9HBH9); test: Kinase selectivity screen MKNK2; format: biochemical; settings: 1 μM compound
PIP4K2A = target: T2, PIP4K2A (Homo sapiens, UniProt P48426); test: Kinase selectivity screen PIP4K2A; settings: read-out: % inhibition of PIP4K2A
T2 sequence (P48426 1-406): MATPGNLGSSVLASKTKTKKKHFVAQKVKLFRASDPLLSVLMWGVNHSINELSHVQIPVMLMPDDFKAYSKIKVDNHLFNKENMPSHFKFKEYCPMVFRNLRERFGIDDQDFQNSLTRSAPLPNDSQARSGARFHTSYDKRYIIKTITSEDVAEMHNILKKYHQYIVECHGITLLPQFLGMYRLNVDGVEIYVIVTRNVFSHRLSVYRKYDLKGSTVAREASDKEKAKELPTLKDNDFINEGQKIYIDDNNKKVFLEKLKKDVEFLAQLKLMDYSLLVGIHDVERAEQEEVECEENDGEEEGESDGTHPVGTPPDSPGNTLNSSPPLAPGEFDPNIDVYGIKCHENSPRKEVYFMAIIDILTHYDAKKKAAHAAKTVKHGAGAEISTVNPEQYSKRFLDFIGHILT

PLK1 = PLK1 (Homo sapiens, UniProt P53350); test: Kinase selectivity screen PLK1; settings: read-out: % inhibition of PLK1
DMPK = target: T3, DMPK (Homo sapiens, UniProt Q09013); test: Kinase selectivity screen DMPK; settings: read-out: % inhibition of DMPK
T3 sequence (Q09013 1-629): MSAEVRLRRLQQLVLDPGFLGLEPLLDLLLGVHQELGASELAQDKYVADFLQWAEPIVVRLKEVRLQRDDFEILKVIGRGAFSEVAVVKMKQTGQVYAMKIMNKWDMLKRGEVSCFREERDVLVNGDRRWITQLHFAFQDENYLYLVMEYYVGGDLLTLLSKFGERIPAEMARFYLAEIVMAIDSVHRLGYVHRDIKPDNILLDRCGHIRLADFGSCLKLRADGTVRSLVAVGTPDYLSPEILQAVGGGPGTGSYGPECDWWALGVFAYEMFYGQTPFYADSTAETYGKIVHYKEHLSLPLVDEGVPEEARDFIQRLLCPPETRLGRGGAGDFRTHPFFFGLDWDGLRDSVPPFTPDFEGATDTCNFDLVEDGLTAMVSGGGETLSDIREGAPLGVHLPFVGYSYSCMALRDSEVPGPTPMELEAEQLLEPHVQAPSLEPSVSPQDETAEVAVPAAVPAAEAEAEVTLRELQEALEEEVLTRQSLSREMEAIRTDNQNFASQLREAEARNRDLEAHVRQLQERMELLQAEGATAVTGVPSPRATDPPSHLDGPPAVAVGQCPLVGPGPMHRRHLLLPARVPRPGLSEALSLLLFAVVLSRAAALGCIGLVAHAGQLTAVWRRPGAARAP

PTK2, sequence (Q05397 whole entry, species assumed): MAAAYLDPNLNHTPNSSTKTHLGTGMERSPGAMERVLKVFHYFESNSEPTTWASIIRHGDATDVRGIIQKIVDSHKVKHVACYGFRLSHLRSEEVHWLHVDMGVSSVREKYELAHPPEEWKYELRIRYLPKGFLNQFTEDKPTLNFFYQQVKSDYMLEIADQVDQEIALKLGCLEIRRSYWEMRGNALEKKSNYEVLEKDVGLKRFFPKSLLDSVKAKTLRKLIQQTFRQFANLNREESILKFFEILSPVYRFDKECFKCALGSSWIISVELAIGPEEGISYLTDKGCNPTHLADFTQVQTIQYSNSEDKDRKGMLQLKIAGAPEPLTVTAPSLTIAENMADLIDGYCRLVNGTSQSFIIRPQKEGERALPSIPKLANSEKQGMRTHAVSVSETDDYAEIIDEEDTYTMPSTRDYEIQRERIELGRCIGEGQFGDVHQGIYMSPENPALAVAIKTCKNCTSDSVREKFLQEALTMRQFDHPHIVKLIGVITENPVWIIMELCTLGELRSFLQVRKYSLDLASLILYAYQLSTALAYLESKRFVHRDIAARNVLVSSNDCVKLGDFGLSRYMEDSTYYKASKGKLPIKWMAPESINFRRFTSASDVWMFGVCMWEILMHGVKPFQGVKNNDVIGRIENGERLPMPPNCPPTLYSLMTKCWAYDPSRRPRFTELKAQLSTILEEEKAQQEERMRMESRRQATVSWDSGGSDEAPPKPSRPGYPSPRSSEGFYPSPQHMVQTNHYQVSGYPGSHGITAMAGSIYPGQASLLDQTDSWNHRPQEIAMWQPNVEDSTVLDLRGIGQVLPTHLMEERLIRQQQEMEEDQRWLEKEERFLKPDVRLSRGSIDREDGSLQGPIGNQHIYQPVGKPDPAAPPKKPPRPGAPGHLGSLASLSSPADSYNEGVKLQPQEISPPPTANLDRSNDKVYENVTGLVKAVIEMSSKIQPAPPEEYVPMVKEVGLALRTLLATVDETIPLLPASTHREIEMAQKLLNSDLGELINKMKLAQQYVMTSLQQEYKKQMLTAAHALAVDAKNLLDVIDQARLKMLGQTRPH
STK10, sequence (O94804 whole entry, species assumed): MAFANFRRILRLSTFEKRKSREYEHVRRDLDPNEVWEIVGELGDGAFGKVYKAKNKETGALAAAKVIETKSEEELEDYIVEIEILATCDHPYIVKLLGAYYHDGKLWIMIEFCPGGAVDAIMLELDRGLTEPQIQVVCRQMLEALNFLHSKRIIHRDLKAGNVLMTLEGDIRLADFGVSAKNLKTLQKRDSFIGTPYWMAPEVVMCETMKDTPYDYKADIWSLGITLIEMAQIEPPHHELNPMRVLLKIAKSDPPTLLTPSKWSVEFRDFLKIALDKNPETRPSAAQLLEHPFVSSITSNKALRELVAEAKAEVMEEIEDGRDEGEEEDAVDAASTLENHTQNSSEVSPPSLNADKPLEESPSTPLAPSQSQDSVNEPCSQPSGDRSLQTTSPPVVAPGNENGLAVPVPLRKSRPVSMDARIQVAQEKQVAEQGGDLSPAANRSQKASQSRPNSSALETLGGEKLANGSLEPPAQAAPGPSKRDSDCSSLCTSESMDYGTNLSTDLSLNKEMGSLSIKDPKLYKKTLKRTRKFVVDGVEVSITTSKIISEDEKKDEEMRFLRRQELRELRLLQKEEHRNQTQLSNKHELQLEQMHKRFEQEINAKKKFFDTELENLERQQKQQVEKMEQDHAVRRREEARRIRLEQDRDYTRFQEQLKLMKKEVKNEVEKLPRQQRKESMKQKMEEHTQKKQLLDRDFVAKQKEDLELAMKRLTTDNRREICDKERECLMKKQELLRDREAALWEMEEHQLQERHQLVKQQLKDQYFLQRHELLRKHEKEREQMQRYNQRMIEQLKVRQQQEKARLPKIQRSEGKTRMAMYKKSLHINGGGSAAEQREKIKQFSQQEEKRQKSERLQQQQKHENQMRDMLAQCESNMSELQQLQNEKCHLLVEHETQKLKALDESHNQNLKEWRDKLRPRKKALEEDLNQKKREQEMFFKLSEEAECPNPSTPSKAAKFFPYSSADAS
RPS6KA5, sequence (O75582 whole entry, species assumed): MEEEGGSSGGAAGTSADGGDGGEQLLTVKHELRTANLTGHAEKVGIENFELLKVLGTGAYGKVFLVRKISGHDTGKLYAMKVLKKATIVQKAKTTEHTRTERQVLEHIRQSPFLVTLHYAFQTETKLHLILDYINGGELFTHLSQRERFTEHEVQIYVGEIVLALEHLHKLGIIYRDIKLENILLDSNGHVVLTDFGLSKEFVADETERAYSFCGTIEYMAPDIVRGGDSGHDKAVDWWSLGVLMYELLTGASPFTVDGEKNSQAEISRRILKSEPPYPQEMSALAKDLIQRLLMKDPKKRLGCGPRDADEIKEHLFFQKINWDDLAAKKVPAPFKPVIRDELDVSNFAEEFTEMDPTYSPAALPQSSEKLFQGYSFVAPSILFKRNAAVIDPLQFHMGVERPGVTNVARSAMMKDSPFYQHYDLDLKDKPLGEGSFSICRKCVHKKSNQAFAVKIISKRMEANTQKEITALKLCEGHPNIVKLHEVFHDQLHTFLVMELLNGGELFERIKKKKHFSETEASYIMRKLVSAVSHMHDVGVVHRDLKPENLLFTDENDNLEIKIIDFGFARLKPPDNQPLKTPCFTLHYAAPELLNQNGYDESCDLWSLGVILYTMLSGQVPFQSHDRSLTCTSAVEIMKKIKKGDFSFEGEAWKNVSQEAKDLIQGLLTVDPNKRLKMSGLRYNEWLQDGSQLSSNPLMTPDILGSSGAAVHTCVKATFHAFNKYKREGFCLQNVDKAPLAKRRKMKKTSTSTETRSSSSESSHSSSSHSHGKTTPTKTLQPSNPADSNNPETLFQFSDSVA
MKNK2, sequence (Q9HBH9 whole entry): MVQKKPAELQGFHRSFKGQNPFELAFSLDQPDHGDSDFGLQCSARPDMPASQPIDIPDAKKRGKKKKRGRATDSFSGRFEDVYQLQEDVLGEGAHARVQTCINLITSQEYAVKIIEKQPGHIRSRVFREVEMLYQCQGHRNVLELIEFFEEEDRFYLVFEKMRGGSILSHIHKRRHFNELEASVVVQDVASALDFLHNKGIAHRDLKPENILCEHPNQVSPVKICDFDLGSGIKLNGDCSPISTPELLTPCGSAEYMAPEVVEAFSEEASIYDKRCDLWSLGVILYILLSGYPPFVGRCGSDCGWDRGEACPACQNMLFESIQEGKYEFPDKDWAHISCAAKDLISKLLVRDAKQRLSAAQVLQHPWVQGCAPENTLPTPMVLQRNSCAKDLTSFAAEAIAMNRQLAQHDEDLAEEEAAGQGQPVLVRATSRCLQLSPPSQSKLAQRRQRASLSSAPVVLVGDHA
AKT1, sequence (P31749 whole entry, species assumed): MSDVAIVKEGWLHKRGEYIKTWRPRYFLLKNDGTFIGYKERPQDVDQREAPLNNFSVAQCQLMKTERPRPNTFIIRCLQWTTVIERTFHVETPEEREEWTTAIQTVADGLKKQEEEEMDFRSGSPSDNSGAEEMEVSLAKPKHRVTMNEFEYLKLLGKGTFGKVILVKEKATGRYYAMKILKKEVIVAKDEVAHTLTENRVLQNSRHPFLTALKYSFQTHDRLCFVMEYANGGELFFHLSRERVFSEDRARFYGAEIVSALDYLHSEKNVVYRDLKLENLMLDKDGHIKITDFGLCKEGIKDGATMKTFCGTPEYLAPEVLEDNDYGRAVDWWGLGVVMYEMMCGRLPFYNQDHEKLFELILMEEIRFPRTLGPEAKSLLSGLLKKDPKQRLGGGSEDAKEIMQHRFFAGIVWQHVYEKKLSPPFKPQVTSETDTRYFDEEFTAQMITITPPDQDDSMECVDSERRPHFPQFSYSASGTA
PLK1, sequence (P53350 whole entry, species assumed): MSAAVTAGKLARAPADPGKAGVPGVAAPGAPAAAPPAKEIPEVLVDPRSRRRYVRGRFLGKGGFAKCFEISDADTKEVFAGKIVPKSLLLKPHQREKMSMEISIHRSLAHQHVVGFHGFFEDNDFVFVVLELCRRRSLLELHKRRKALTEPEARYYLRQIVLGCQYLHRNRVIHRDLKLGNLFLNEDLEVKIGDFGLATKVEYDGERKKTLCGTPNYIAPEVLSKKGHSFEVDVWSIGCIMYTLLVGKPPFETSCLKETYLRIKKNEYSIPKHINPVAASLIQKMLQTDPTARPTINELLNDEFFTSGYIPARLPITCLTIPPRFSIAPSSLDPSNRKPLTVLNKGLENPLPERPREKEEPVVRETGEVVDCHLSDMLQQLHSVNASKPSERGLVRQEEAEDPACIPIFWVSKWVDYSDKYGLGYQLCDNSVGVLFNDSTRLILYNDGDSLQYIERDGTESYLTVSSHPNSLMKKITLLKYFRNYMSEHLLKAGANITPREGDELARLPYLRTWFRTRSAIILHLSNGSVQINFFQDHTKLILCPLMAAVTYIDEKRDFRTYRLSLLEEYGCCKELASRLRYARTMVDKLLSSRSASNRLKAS

| Compound | inhibition at 1 µM (AKT1) [%] | inhibition at 1 µM (PTK2) [%] | inhibition at 1 µM (STK10) [%] | inhibition at 1 µM (SGK1) [%] | inhibition at 1 µM (RPS6KA5) [%] | inhibition at 1 µM (KIT) [%] | inhibition at 1 µM (MKNK2) [%] | inhibition at 1 µM (PIP4K2A) [%] | inhibition at 1 µM (PLK1) [%] | inhibition at 1 µM (DMPK) [%] |
| --- | --- | --- | --- | --- | --- | --- | --- | --- | --- | --- |
| CC(C)Oc1cc(F)ccc1Nc1ncnc2sc(C(=O)NCC3CCNCC3)nc12 [Example 10, 7-(4-fluoro-2-isopropoxy-anilino)-N-(4-piperidylmethyl)thiazolo[5,4-d]pyrimidine-2-carboxamide] | 0 | 16 | 28 | 14 | 0 | 0 | 81 | 12 | 0 | 0 |
| CN(C)CCCNC(=O)c1nc2c(N3CCc4cc(F)ccc43)ncnc2s1 [Example 64, N-[3-(dimethylamino)propyl]-7-(5-fluoroindolin-1-yl)thiazolo[5,4-d]pyrimidine-2-carboxamide] | 0 | 0 | 81 | 41 | 24 | 0 | 96 | 0 | 0 | 0 |
| O=C(NCC1CCNCC1)c1nc2c(N3CCc4cc(F)ccc43)ncnc2s1 [Example 58, 7-(5-fluoroindolin-1-yl)-N-(4-piperidylmethyl)thiazolo[5,4-d]pyrimidine-2-carboxamide] | 0 | 0 | 71 | 24 | 0 | 7 | 93 | 7 | 1 | 0 |
